Key:
Assay in all cases: Test B pre-/postemergence plant response
Type in all cases: in vivo
[1] = system: Italian ryegrass (Lolium multiflorum); details: for Ryegrass, Italian plant response rating (0 to 100 scale): 62 g ai/ha, postemergence, 0 is no effect, 100 is complete control, 13 to 15 days; for Plant response rating, Ryegrass, Italian: Postemergence
In short: (§1)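 Ratings reflect visual comparison with untreated controls 13 to 15 days after application, from 0 (no effect) to 100 (complete control). Application was preemergence to seeded loam/sand soil or postemergence to 1- to 4-leaf plants, with compound in a non-phytotoxic, surfactant-containing solvent.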

[2] = system: Surinam grass (Brachiaria decumbens); details: for Surinam Grass plant response rating (0 to 100 scale): 62 g ai/ha, postemergence, 0 is no effect, 100 is complete control, 13 to 15 days; for Plant response rating, Surinam Grass: Postemergence
In short: as §1

[3] = system: bermudagrass (Cynodon dactylon); details: for Bermudagrass plant response rating (0 to 100 scale): 62 g ai/ha, 0 is no effect, 13 to 15 days
In short: as §1

[4] = system: blackgrass (Alopecurus myosuroides); details: for Blackgrass plant response rating (0 to 100 scale): 62 g ai/ha, 0 is no effect, 13 to 15 days
In short: as §1

corn (Zea mays) = details: for Corn plant response rating (0 to 100 scale): 62 g ai/ha, 0 is no effect, 13 to 15 days
In short: as §1

[5] = system: downy bromegrass (Bromus tectorum); details: for Bromegrass, Downy plant response rating (0 to 100 scale): 62 g ai/ha, 0 is no effect, 13 to 15 days
In short: as §1

[6] = system: giant foxtail (Setaria faberii); details: for Foxtail, Giant plant response rating (0 to 100 scale): 62 g ai/ha, 0 is no effect, 13 to 15 days
In short: as §1

[7] = system: green foxtail (Setaria viridis); details: for Foxtail, Green plant response rating (0 to 100 scale): 62 g ai/ha, 0 is no effect, 13 to 15 days
In short: as §1

[8] = system: lambsquarters (Chenopodium album); details: for Lambsquarters plant response rating (0 to 100 scale): 62 g ai/ha, 0 is no effect, 13 to 15 days
In short: as §1

[9] = system: large crabgrass (Digitaria sanguinalis); details: for Crabgrass, Large plant response rating (0 to 100 scale): 62 g ai/ha, 0 is no effect, 13 to 15 days
In short: as §1

[10] = system: morningglory (Ipomoea coccinea); details: for Morningglory plant response rating (0 to 100 scale): 62 g ai/ha, 0 is no effect, 13 to 15 days
In short: as §1

[11] = system: woolly cupgrass (Eriochloa villosa); details: for Cupgrass, Woolly plant response rating (0 to 100 scale): 62 g ai/ha, 0 is no effect, 13 to 15 days
In short: as §1

[12] = system: yellow nutsedge (Cyperus esculentus); details: for Nutsedge, Yellow plant response rating (0 to 100 scale): 62 g ai/ha, 0 is no effect, 13 to 15 days
In short: as §1

[13] = 125 g ai/ha, scale 0 to 100 (0 no effect, 100 complete control)
[14] = 250 g ai/ha, scale 0 to 100 (0 no effect, 100 complete control)
[15] = 31 g ai/ha, postemergence, scale 0 to 100, 0 is no effect, 100 is complete control
[16] = postemergence, 100 is complete control
[17] = Postemergence, 125 g ai/ha, scale 0 to 100 (0 no effect, 100 complete control)
[18] = Postemergence, 250 g ai/ha, scale 0 to 100 (0 no effect, 100 complete control)
[19] = 31 g ai/ha, 0 to 100 scale (0 no effect, 100 complete control)
[20] = Postemergence, 31 g ai/ha, 0 to 100 scale (0 no effect, 100 complete control)

CCCCn1c(-c2cc(F)cc(F)c2)ncc(C(=O)C2=C(O)CCCC2=O)c1=O [Compound 121]
Ryegrass, Italian plant response rating (0 to 100 scale) [1]: 40
Plant response rating, Ryegrass, Italian [1, 13]: 70
Plant response rating, Ryegrass, Italian [1, 14]: 75
Surinam Grass plant response rating (0 to 100 scale) [2]: 100
Plant response rating, Surinam Grass [2, 13]: 100
Plant response rating, Surinam Grass [2, 14]: 100
Plant response rating, Bermudagrass [3, 15]: 95
Bermudagrass plant response rating (0 to 100 scale) [3, 16]: 98
Plant response rating, Bermudagrass [3, 17]: 100
Plant response rating, Bermudagrass [3, 18]: 100
Plant response rating, Blackgrass [4, 15]: 5
Blackgrass plant response rating (0 to 100 scale) [4, 16]: 40
Plant response rating, Blackgrass [4, 17]: 40
Plant response rating, Blackgrass [4, 18]: 60
Plant response rating, Corn (corn (Zea mays); [15]): 25
Corn plant response rating (0 to 100 scale) (corn (Zea mays); [16]): 55
Plant response rating, Corn (corn (Zea mays); [17]): 55
Plant response rating, Corn (corn (Zea mays); [18]): 85
Plant response rating, Bromegrass, Downy [5, 15]: 25
Bromegrass, Downy plant response rating (0 to 100 scale) [5, 16]: 50
Plant response rating, Bromegrass, Downy [5, 17]: 80
Plant response rating, Bromegrass, Downy [5, 18]: 90
Plant response rating, Foxtail, Giant [6, 15]: 95
Foxtail, Giant plant response rating (0 to 100 scale) [6, 16]: 98
Plant response rating, Foxtail, Giant [6, 17]: 98
Plant response rating, Foxtail, Giant [6, 18]: 98
Plant response rating, Foxtail, Green [7, 15]: 80
Foxtail, Green plant response rating (0 to 100 scale) [7, 16]: 90
Plant response rating, Foxtail, Green [7, 17]: 100
Plant response rating, Foxtail, Green [7, 18]: 100
Plant response rating, Lambsquarters [8, 15]: 95
Lambsquarters plant response rating (0 to 100 scale) [8, 16]: 100
Plant response rating, Lambsquarters [8, 17]: 100
Plant response rating, Lambsquarters [8, 18]: 100
Plant response rating, Crabgrass, Large [9, 15]: 85
Crabgrass, Large plant response rating (0 to 100 scale) [9, 16]: 90
Plant response rating, Crabgrass, Large [9, 17]: 95
Plant response rating, Crabgrass, Large [9, 18]: 98
Plant response rating, Morningglory [10, 15]: 5
Morningglory plant response rating (0 to 100 scale) [10, 16]: 20
Plant response rating, Morningglory [10, 17]: 25
Plant response rating, Morningglory [10, 18]: 45
Plant response rating, Cupgrass, Woolly [11, 15]: 95
Cupgrass, Woolly plant response rating (0 to 100 scale) [11, 16]: 100
Plant response rating, Cupgrass, Woolly [11, 17]: 100
Plant response rating, Cupgrass, Woolly [11, 18]: 100
Plant response rating, Nutsedge, Yellow [12, 15]: 5
Nutsedge, Yellow plant response rating (0 to 100 scale) [12, 16]: 45
Plant response rating, Nutsedge, Yellow [12, 17]: 45
Plant response rating, Nutsedge, Yellow [12, 18]: 50

COCCn1c(-c2cccc(F)c2)ncc(C(=O)C2=C(O)CCCC2=O)c1=O [Compound 123]
Ryegrass, Italian plant response rating (0 to 100 scale) [1]: 5
Plant response rating, Ryegrass, Italian [1, 19]: 0
Plant response rating, Ryegrass, Italian [1, 13]: 5
Plant response rating, Ryegrass, Italian [1, 14]: 50
Surinam Grass plant response rating (0 to 100 scale) [2]: 75
Plant response rating, Surinam Grass [2, 19]: 25
Plant response rating, Surinam Grass [2, 13]: 85
Plant response rating, Surinam Grass [2, 14]: 85
Bermudagrass plant response rating (0 to 100 scale) [3, 16]: 85
Plant response rating, Bermudagrass [3, 20]: 80
Plant response rating, Bermudagrass [3, 17]: 90
Plant response rating, Bermudagrass [3, 18]: 98
Blackgrass plant response rating (0 to 100 scale) [4, 16]: 20
Plant response rating, Blackgrass [4, 20]: 20
Plant response rating, Blackgrass [4, 17]: 40
Plant response rating, Blackgrass [4, 18]: 80
Corn plant response rating (0 to 100 scale) (corn (Zea mays); [16]): 70
Plant response rating, Corn (corn (Zea mays); [20]): 35
Plant response rating, Corn (corn (Zea mays); [17]): 75
Plant response rating, Corn (corn (Zea mays); [18]): 80
Bromegrass, Downy plant response rating (0 to 100 scale) [5, 16]: 5
Plant response rating, Bromegrass, Downy [5, 20]: 0
Plant response rating, Bromegrass, Downy [5, 17]: 10
Plant response rating, Bromegrass, Downy [5, 18]: 45
Foxtail, Giant plant response rating (0 to 100 scale) [6, 16]: 75
Plant response rating, Foxtail, Giant [6, 20]: 65
Plant response rating, Foxtail, Giant [6, 17]: 80
Plant response rating, Foxtail, Giant [6, 18]: 85
Foxtail, Green plant response rating (0 to 100 scale) [7, 16]: 60
Plant response rating, Foxtail, Green [7, 20]: 50
Plant response rating, Foxtail, Green [7, 17]: 85
Plant response rating, Foxtail, Green [7, 18]: 90
Lambsquarters plant response rating (0 to 100 scale) [8, 16]: 95
Plant response rating, Lambsquarters [8, 20]: 80
Plant response rating, Lambsquarters [8, 17]: 98
Plant response rating, Lambsquarters [8, 18]: 98
Crabgrass, Large plant response rating (0 to 100 scale) [9, 16]: 80
Plant response rating, Crabgrass, Large [9, 20]: 70
Plant response rating, Crabgrass, Large [9, 17]: 85
Plant response rating, Crabgrass, Large [9, 18]: 90
Morningglory plant response rating (0 to 100 scale) [10, 16]: 98
Plant response rating, Morningglory [10, 20]: 70
Plant response rating, Morningglory [10, 17]: 100
Plant response rating, Morningglory [10, 18]: 100
Cupgrass, Woolly plant response rating (0 to 100 scale) [11, 16]: 45
Plant response rating, Cupgrass, Woolly [11, 20]: 25
Plant response rating, Cupgrass, Woolly [11, 17]: 75
Plant response rating, Cupgrass, Woolly [11, 18]: 90
Nutsedge, Yellow plant response rating (0 to 100 scale) [12, 16]: 75
Plant response rating, Nutsedge, Yellow [12, 20]: 65
Plant response rating, Nutsedge, Yellow [12, 17]: 75
Plant response rating, Nutsedge, Yellow [12, 18]: 80

From patent US8952024B2, “Herbicidal pyrimidone derivatives” (E I du Pont de Nemours and Company, priority 2009, dated 2015)
